Format in all cases: biochemical
The target of one test is T1, MMP-2 (Homo sapiens, UniProt P08253).
T1 construct: made in house; host or cells: MMP-2-transfected p2AHT2 cells
T1 sequence (P08253 110-660): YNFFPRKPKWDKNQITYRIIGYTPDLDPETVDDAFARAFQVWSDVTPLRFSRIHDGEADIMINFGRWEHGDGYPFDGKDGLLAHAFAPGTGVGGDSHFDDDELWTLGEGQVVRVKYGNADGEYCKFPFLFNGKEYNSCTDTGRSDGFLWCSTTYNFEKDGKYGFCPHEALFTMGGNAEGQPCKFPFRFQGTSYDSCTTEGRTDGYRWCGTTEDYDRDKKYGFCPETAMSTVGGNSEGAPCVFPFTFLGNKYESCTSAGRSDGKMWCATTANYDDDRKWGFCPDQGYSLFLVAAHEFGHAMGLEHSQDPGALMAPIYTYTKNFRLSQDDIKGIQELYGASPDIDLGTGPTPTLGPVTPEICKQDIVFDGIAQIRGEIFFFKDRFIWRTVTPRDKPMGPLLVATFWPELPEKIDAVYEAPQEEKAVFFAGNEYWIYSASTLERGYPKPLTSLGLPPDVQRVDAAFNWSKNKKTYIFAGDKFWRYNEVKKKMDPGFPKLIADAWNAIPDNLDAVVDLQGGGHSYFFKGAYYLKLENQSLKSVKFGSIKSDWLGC
The experiment in a line: MMP-2 inhibition (in vitro Ki).

In a further test the target is T2, MMP-13 (Homo sapiens, UniProt P45452).
T2 construct: made in house; host or cells: baculovirus / insect cells
Kind of test: MMP-13 inhibition (in vitro Ki).

The target in the next test is T3, MMP-14 (Homo sapiens, UniProt P50281).
T3 construct: The catalytic domain enzyme was expressed in E. coli inclusion bodies, solubilized in urea; made in house
The experiment in a line: MMP-14 inhibition (in vitro Ki).

The target of the next test is T4, MMP-1 (Homo sapiens, UniProt P03956).
T4 construct: made in house; host or cells: MMP-1-transfected HT-1080 cells (spent media)
T4 sequence (P03956 100-469): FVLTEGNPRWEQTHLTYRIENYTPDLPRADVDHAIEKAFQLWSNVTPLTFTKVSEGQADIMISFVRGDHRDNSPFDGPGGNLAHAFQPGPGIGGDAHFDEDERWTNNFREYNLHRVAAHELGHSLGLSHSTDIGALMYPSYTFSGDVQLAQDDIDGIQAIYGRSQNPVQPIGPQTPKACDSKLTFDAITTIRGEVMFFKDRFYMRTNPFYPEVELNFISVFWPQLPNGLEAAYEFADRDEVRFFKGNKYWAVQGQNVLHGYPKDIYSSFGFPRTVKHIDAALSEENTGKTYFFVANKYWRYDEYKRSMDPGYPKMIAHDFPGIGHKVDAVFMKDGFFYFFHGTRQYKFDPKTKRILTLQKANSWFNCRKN
Kind of test: MMP-1 inhibition (in vitro Ki).

A further test concerns the target T5, MMP-9 (Homo sapiens, UniProt P14780).
T5 construct: made in house; host or cells: MMP-9-transfected HT1080 cells (spent media)
Kind of test: MMP-9 inhibition (in vitro Ki).

[1] abbreviates: Table 9, read-out: MMP-2 Ki (IC-50).
Setting [2] is: Table 9, read-out: MMP-13 Ki (IC-50).
Where [3] appears, read: Table 9, read-out: MMP-14 Ki (IC-50).
Where [4] appears, read: Table 9, read-out: MMP-1 Ki (IC-50).
Where [5] appears, read: Table 9, read-out: MMP-9 Ki (IC-50).

pKi: −log10 of the molar value. Where a name gives a salt, the structure may show the parent alone. Read-outs that look alike come from different tables or passages of the source.

In general, pKi refers to −log10 of the Ki, conventionally taken in molar units.

T5 sequence (P14780 107-707 limits assumed): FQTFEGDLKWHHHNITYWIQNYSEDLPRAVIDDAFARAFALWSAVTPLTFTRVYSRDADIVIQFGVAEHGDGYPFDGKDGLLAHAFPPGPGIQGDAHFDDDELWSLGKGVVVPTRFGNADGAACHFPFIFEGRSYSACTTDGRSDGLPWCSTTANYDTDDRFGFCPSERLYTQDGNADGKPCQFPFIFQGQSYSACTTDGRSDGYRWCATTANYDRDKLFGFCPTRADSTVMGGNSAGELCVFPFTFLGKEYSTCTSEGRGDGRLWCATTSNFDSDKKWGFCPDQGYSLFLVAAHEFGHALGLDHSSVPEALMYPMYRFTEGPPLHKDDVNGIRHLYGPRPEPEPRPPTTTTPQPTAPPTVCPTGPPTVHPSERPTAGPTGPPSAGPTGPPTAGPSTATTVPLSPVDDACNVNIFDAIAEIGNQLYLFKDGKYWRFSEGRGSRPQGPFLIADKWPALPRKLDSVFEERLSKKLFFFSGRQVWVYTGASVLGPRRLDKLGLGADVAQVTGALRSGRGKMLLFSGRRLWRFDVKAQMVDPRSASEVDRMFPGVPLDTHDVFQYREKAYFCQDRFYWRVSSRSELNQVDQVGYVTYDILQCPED

In the case of `CC(F)(F)CCc1ccc(C2CCN(S(=O)(=O)C3(C(=O)NO)CCOCC3)CC2)nc1` [Example A63, 4-({4-[5-(3,3-difluorobutyl)pyridin-2-yl]piperidin-1-yl}sulfonyl)-N-hydroxytetrahydro-2H-pyran-4-carboxamide Hydrochloride], the pKi is 9.30 on MMP-2 (Table 8, read-out: MMP-2 Ki); 9.41 on MMP-13 (Table 8, read-out: MMP-13 Ki); 5.74 at MMP-14 (Table 8, read-out: MMP-14 Ki); 5.36 at MMP-1 (Table 8, read-out: MMP-1 Ki); 9.66 on MMP-9 (Table 8, read-out: MMP-9 Ki).

Turning to `O=C(NO)C1(S(=O)(=O)N2CCC(CCCCc3nc(-c4ccc(OC(F)(F)F)cc4)no3)CC2)CCOCC1` [Example A64, N-hydroxy-4-{[4-(4-{3-[4-(trifluoromethoxy)phenyl]-1,2,4-oxadiazol-5-yl}butyl)piperidin-1-yl]sulfonyl}tetrahydro-2H-pyran-4-carboxamide], the pKi at MMP-2 (Table 8, read-out: MMP-2 Ki) is 7.20; on MMP-13 (Table 8, read-out: MMP-13 Ki), 9.29; at MMP-14 (Table 8, read-out: MMP-14 Ki), less than 5.00; at MMP-1 (Table 8, read-out: MMP-1 Ki), 5.05; at MMP-9 (Table 8, read-out: MMP-9 Ki), 6.56.

For `O=C(NO)C1(S(=O)(=O)N2CCC(c3cnc(CCC(F)(F)C(F)(F)F)cn3)CC2)CCOCC1` [Example A65, N-hydroxy-4-({4-[5-(3,3,4,4,4-pentafluorobutyl)pyrazin-2-yl]piperidin-1-yl}sulfonyl)tetrahydro-2H-pyran-4-carboxamide], the pKi on MMP-2 (Table 8, read-out: MMP-2 Ki) was 8.67; at MMP-13 (Table 8, read-out: MMP-13 Ki) it was 9.33; at MMP-14 (Table 8, read-out: MMP-14 Ki), 5.41; on MMP-1 (Table 8, read-out: MMP-1 Ki), less than 5.00; at MMP-9 (Table 8, read-out: MMP-9 Ki) it was 9.72.

With `COCCC(C(=O)NO)S(=O)(=O)N1CCC(c2ccc(CCC(F)(F)C(F)(F)F)cc2)CC1` (centres unmarked) [Example A66, N-hydroxy-4-methoxy-2-({4-[4-(3,3,4,4,4-pentafluorobutyl)phenyl]piperidin-1-yl}sulfonyl)butanamide], the pKi on MMP-2 (Table 8, read-out: MMP-2 Ki) was 8.67; at MMP-13 (Table 8, read-out: MMP-13 Ki), 8.89; on MMP-14 (Table 8, read-out: MMP-14 Ki) it was 5.02; at MMP-1 (Table 8, read-out: MMP-1 Ki), less than 5.00; on MMP-9 (Table 8, read-out: MMP-9 Ki) it was 8.94.

On to `O=C(NO)C1(S(=O)(=O)N2CCC(c3cnc(OCCC4CC4)cn3)CC2)CCOCC1` [Example A67, 4-({4-[5-(2-cyclopropylethoxy)pyrazin-2-yl]piperidin-1-yl}sulfonyl)-N-hydroxytetrahydro-2H-pyran-4-carboxamide], for which the pKi at MMP-2 (Table 8, read-out: MMP-2 Ki) was 9.18; on MMP-13 (Table 8, read-out: MMP-13 Ki), 9.66; on MMP-14 (Table 8, read-out: MMP-14 Ki), 5.87; at MMP-1 (Table 8, read-out: MMP-1 Ki), 5.35; on MMP-9 (Table 8, read-out: MMP-9 Ki), 10.15.

Regarding `O=C(NO)C1(S(=O)(=O)N2CCC(c3cnc(CCC(F)(F)F)cn3)CC2)CCOCC1` [Example A72], the pKi on MMP-2 (setting [1]) was 8.42; at MMP-13 (setting [2]), 8.70; at MMP-14 (setting [3]), less than 5.00; on MMP-1 (setting [4]), less than 5.00; at MMP-9 (setting [5]), 8.85.

For `CC1(C)O[C@H]2C[C@@](C(=O)NO)(S(=O)(=O)N3CCC(c4ccc(CCC(F)(F)C(F)(F)F)cn4)CC3)C[C@H]2O1` [Example A73], the pKi on MMP-2 (setting [1]) was 9.66; on MMP-13 (setting [2]), 10.05; at MMP-14 (setting [3]), 6.85; on MMP-1 (setting [4]), 6.15; at MMP-9 (setting [5]), 9.80.

Take `O=C(CCCCC1CCN(S(=O)(=O)C2(C(=O)NO)CCOCC2)CC1)N1CCc2ccccc2C1` [Example A74]: the pKi was 7.66 on MMP-2 (setting [1]); 9.74 at MMP-13 (setting [2]); 5.10 on MMP-14 (setting [3]); 6.29 at MMP-1 (setting [4]); 7.18 on MMP-9 (setting [5]).

With `O=C(/C=C/C=C/C1CCN(S(=O)(=O)C2(C(=O)NO)CCOCC2)CC1)N1CCc2ccccc2C1` [Example A75], the negative logarithm of the Ki (pKi) is 6.64 at MMP-2 (setting [1]); 9.39 at MMP-13 (setting [2]); less than 5.00 on MMP-14 (setting [3]); 5.21 on MMP-1 (setting [4]); 6.30 at MMP-9 (setting [5]).

Regarding `O=C(/C=C/C=C/C1CCN(S(=O)(=O)C2(C(=O)NO)CCOCC2)CC1)N1CCN(c2ccccc2)CC1` [Example A76], the pKi at MMP-2 (setting [1]) was 6.45; on MMP-13 (setting [2]), 8.17; on MMP-14 (setting [3]), less than 5.00; at MMP-1 (setting [4]), less than 5.00; at MMP-9 (setting [5]), 5.75.

For the origin of these results see patent US20050209278A1, “Piperidinyl- and piperazinyl-sulfonylmethyl hydroxamic acids and their use as protease inhibitors” (priority 2002, published 2005).
